The source of these data is PubChem BioAssay AID330 (DTP/NCI, 2004).

Where “and” joins values, the source holds several entries; their conditions need not be identical. Identical values can stand only once. Toxic doses and inconclusive results are not listed. Square brackets hold non-standard residues; d marks the D form. Peptide text beside a SMILES is read from it. ξ: configuration not given here. ξPhe(4-N(CH2CH2Cl)2) = NC(Cc1ccc(N(CCCl)CCCl)cc1)C(=O)O

In this experiment the test system is P388 leukemia ip, CD2F1 mice, survival T/C. As to the kind of experiment: NCI In Vivo Anticancer Drug Screen. Data for tumor model P388 Leukemia (intraperitoneal) in CD2F1 (CDF1) mice. The settings on record: endpoint: median survival time, higher = longer survival. The method, boiled down:
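Mice carrying the transplanted tumor received test compound or vehicle. Survival was recorded in each group, and the value is the treated-group measurement divided by that of the vehicle-treated control group.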

Where [1] appears, read: dose: 12.5 mg/kg/injection, schedule: Q01DX005 (ip), vehicle: Klucel (hydroxypropylcellulose) (HPC).
The mark [2] stands for this setting: dose: 25.0 mg/kg/injection, schedule: Q01DX005 (ip), vehicle: Klucel (hydroxypropylcellulose) (HPC).
[3] abbreviates: dose: 50.0 mg/kg/injection, schedule: Q01DX005 (ip), vehicle: Klucel (hydroxypropylcellulose) (HPC).
The mark [4] stands for this setting: dose: 100.0 mg/kg/injection, schedule: Q01DX005 (ip), vehicle: Klucel (hydroxypropylcellulose) (HPC).
Setting [5] is: dose: 100.0 mg/kg/injection, schedule: Q01DX005 (ip), vehicle: saline.
Where [6] appears, read: dose: 200.0 mg/kg/injection, schedule: Q01DX005 (ip), vehicle: saline.
Where [7] appears, read: dose: 6.25 mg/kg/injection, schedule: Q01DX005 (ip), vehicle: Klucel (hydroxypropylcellulose) (HPC).
Where [8] appears, read: dose: 100.0 mg/kg/injection, schedule: Q01DX009 (ip), vehicle: saline with Tween-80.
The mark [9] stands for this setting: dose: 200.0 mg/kg/injection, schedule: Q01DX009 (ip), vehicle: saline with Tween-80.
[10] abbreviates: dose: 400.0 mg/kg/injection, schedule: Q01DX009 (ip), vehicle: saline with Tween-80.
The mark [11] stands for this setting: dose: 50.0 mg/kg/injection, schedule: Q01DX009 (ip), vehicle: saline with Tween-80.

Turning to `CC(C)N(C(C)C)P1(=NC(C)(C)C)N(C(C)(C)C)P(=NC(C)(C)C)(N(C(C)C)C(C)C)N1C(C)(C)C` (stereo not given), the T/C under setting [1] is 107 % of control; the T/C under setting [2] was 104 % of control; the T/C under setting [3] is 100 % of control and 102 % of control; the T/C under setting [4] is 102 % of control.
As to `CCCCCCCCCCCCCCCCCC[N+](C)(C)c1nc(Cl)nc(Cl)n1`, the T/C is, setting by setting: (dose: 25.0 mg/kg/injection, schedule: Q01DX009 (ip), vehicle: saline) 100 % of control; (dose: 50.0 mg/kg/injection, schedule: Q01DX009 (ip), vehicle: saline) 91 % of control.
For `COC(=O)C1=C(/C=C/C(C)=O)NC(C)=C(C(=O)OC(C)C)C1c1ccccc1Cl` (stereo not given), the T/C was 105 % of control under setting [2]; 99 % of control and 108 % of control and 96 % of control under setting [3]; 102 % of control and 104 % of control and 113 % of control under setting [4]; 108 % of control and 116 % of control (dose: 200.0 mg/kg/injection, schedule: Q01DX005 (ip), vehicle: Klucel (hydroxypropylcellulose) (HPC)).
With `CCOC(=O)C1CCCN(C)C1` (stereo not given), the T/C was 104 % of control (dose: 100.0 mg/kg/injection, schedule: Q04DX003 (ip), vehicle: Klucel (hydroxypropylcellulose) (HPC)); 100 % of control (dose: 200.0 mg/kg/injection, schedule: Q04DX003 (ip), vehicle: Klucel (hydroxypropylcellulose) (HPC)); 100 % of control (dose: 400.0 mg/kg/injection, schedule: Q04DX003 (ip), vehicle: Klucel (hydroxypropylcellulose) (HPC)).
Regarding `N#CN=C(N)N`, the T/C reads like this: (dose: 18.8 mg/kg/injection, schedule: Q01DX005 (ip), vehicle: saline) 115 % of control; (dose: 37.5 mg/kg/injection, schedule: Q01DX005 (ip), vehicle: saline) 112 % of control; (dose: 75.0 mg/kg/injection, schedule: Q01DX005 (ip), vehicle: saline) 98 % of control; under setting [5], 96 % of control; (dose: 150.0 mg/kg/injection, schedule: Q01DX005 (ip), vehicle: saline) 105 % of control; under setting [6], 102 % of control. Further, the T/C by setting is: (dose: 300.0 mg/kg/injection, schedule: Q01DX005 (ip), vehicle: saline) 118 % of control; (dose: 400.0 mg/kg/injection, schedule: Q01DX005 (ip), vehicle: saline) 99 % of control; (dose: 600.0 mg/kg/injection, schedule: Q01DX005 (ip), vehicle: saline) 112 % of control; (dose: 800.0 mg/kg/injection, schedule: Q01DX005 (ip), vehicle: saline) 101 % of control.
On to `CC1=C(CO)C(=O)OC(C(C)C2CCC3C4CC5OC56C(O)C(N5CCOCC5)CC(=O)C6(C)C4CCC23C)C1` (stereo not given), for which the T/C was 103 % of control (dose: 8.25 mg/kg/injection, schedule: Q01DX005 (ip), vehicle: Klucel (hydroxypropylcellulose) (HPC)); 99 % of control (dose: 16.5 mg/kg/injection, schedule: Q01DX005 (ip), vehicle: Klucel (hydroxypropylcellulose) (HPC)); 97 % of control (dose: 33.0 mg/kg/injection, schedule: Q01DX005 (ip), vehicle: Klucel (hydroxypropylcellulose) (HPC)); 97 % of control (dose: 66.0 mg/kg/injection, schedule: Q01DX005 (ip), vehicle: Klucel (hydroxypropylcellulose) (HPC)); 103 % of control (dose: 132.0 mg/kg/injection, schedule: Q01DX005 (ip), vehicle: Klucel (hydroxypropylcellulose) (HPC)).
Regarding `O=C(O)C1CC1.[Ag]`, the T/C reads like this: (dose: 3.12 mg/kg/injection, schedule: Q01DX009 (ip), vehicle: saline with Tween-80) 153 % of control; (dose: 6.25 mg/kg/injection, schedule: Q01DX009 (ip), vehicle: saline with Tween-80) 97 % of control.
As for `CN1c2ccccc2S(=O)(=O)n2c(Cc3ccccc3)nnc21`, the T/C is, setting by setting: (dose: 100.0 mg/kg/injection, schedule: Q04DX002 (ip), vehicle: saline with Tween-80) 92 % of control; (dose: 200.0 mg/kg/injection, schedule: Q04DX002 (ip), vehicle: saline with Tween-80) 90 % of control; (dose: 400.0 mg/kg/injection, schedule: Q04DX002 (ip), vehicle: saline with Tween-80) 90 % of control.
`CC1CCC2C(C)C3C(CC4C5CC=C6CC(OC7OC(CO)C(O)C(OC8OC(CO)C(O)C(O)C8O)C7OC7OC(C)C(O)C(O)C7O)CCC6(C)C5CCC43C)N2C1` (stereo not given): the T/C under setting [7] was 91 % of control; the T/C under setting [1] is 95 % of control; the T/C under setting [2] is 89 % of control; the T/C (dose: 25.0 mg/kg/injection, schedule: Q04DX003 (ip), vehicle: suspension in saline) is 98 % of control; the T/C (dose: 50.0 mg/kg/injection, schedule: Q04DX003 (ip), vehicle: suspension in saline) was 96 % of control; the T/C (dose: 100.0 mg/kg/injection, schedule: Q04DX003 (ip), vehicle: suspension in saline) is 105 % of control.
Take `O=S(=O)(O)C(Nc1ccccc1)c1ccccc1` (stereo not given): the T/C was 100 % of control under setting [8]; 100 % of control (dose: 100.0 mg/kg/injection, schedule: Q04DX003 (ip), vehicle: saline sonified); 109 % of control under setting [9]; 100 % of control (dose: 200.0 mg/kg/injection, schedule: Q04DX003 (ip), vehicle: saline sonified); 104 % of control under setting [10]; 100 % of control (dose: 400.0 mg/kg/injection, schedule: Q04DX003 (ip), vehicle: saline sonified).
On to `CCOC(=O)C(Cc1ccc(N(CCCl)CCCl)cc1)NC(=O)C(CCC(=O)O)NC(=O)C(CO)NC(=O)C(CCC(=O)O)NC(=O)C(N)CO` (stereo not given) (H-SESE[ξPhe(4-N(CH2CH2Cl)2)]-OEt; configuration not given here), for which the T/C is, setting by setting: (dose: 5.0 mg/kg/injection, schedule: Q04DX003 (ip), vehicle: water) 95 % of control; (dose: 10.0 mg/kg/injection, schedule: Q04DX003 (ip), vehicle: water) 106 % of control; (dose: 20.0 mg/kg/injection, schedule: Q04DX003 (ip), vehicle: water) 94 % of control; (dose: 40.0 mg/kg/injection, schedule: Q04DX003 (ip), vehicle: water) 105 % of control and 119 % of control.
`COCC1=C(C)CC(CC(=O)OC)C1=O` (stereo not given): the T/C is 98 % of control (dose: 60.0 mg/kg/injection, schedule: Q01DX005 (ip), vehicle: saline); 98 % of control (dose: 120.0 mg/kg/injection, schedule: Q01DX005 (ip), vehicle: saline); 101 % of control (dose: 240.0 mg/kg/injection, schedule: Q01DX005 (ip), vehicle: saline).
For the compound `O=C(CC1(O)C(=O)N(CN2CCCCC2)c2ccccc21)c1ccccc1` (stereo not given), the T/C was 110 % of control under setting [11] and 97 % of control under setting [8].
As to `CC(C)c1ccc(OC(=O)Nc2c(Cl)cccc2Cl)cc1`, the T/C by setting is: (dose: 60.0 mg/kg/injection, schedule: Q01DX005 (ip), vehicle: saline with Tween-80) 108 % of control; (dose: 120.0 mg/kg/injection, schedule: Q01DX005 (ip), vehicle: saline with Tween-80) 120 % of control; (dose: 240.0 mg/kg/injection, schedule: Q01DX005 (ip), vehicle: saline with Tween-80) 115 % of control.
`C/C(=N\NC(N)=O)C1=C(O)C(C(C)C)NC1=O` (stereo not given): the T/C is, setting by setting: under setting [11], 93 % of control; under setting [8], 99 % of control; under setting [9], 92 % of control; under setting [10], 99 % of control.
As for `C=C1C(=O)OC2C[C@]3(C)C(CC12)C(=C)C(O)C[C@@H]3OC(=O)C(C)CC` (stereo not given in full), the T/C is 105 % of control (dose: 50.0 mg/kg/injection, schedule: Q01DX005 (ip), vehicle: saline with Tween-80); 103 % of control (dose: 100.0 mg/kg/injection, schedule: Q01DX005 (ip), vehicle: saline with Tween-80); 111 % of control (dose: 200.0 mg/kg/injection, schedule: Q01DX005 (ip), vehicle: saline with Tween-80).
Consider `CC(=O)OC1C2C(OC3OC(=O)/C(=C\C=C4\CCCC(C)(C)C4)C32)O[C@H]1OC(C)=O` (stereo not given in full), for which the T/C is, setting by setting: under setting [7], 105 % of control; under setting [1], 113 % of control; under setting [2], 86 % of control.
Take `CC(=O)/C(=C/c1ccc(OC2OC(CO)C(O)C(O)C2O)cc1)C(=O)CCN(C)C` (stereo not given): the T/C was 107 % of control (dose: 50.0 mg/kg/injection, schedule: Q01DX005 (ip), vehicle: saline); 93 % of control under setting [5]; 100 % of control under setting [6].
